Results as given in patent US7439251B2, “Methods and compositions for treatment of central and peripheral nervous system disorders and novel compounds useful therefor” (Israel Institute for Biological Research, priority 2002, dated 2008).
Read-outs that look alike come from different tables or passages of the source.

How the values were obtained:
[1] = Morris water maze in C57BL/10SnJ (small hippocampus) vs C57BL6J mice; type: in vivo; conditions: for reversal test, swimming speed: normal hippocampi mice, AF150(S) 0.5 mg/kg, AF267B 1 mg/kg
Description: C57BL/10SnJ (B10) mice were selected due to their small hippocampi and decreased number of hippocampal pyramidal neurons; the cell loss seemed to be associated with poor spatial learning.
Each group of mice was randomly divided into 7 treatment groups (n=12-14/group). […] All tested compounds and saline were administered once a day for 4 days before starting the behavioral testing, and then for the duration of the 5-day experiment, 30 minutes before testing.
Training: Each mouse was trained for four consecutive days, four trials (one block) per day, in which the platform position remained constant and was located in the center of the southeast quadrant of the pool. Within each block of four trials, each mouse started at each of the starting locations, but the sequence of locations was randomly selected. A trial consisted of placing a mouse by hand into the water facing the wall of the pool at one of four starting locations, north, south, east or west, around the pool's perimeter. Escape latency (the time to find the platform), path length (the distance traveled by the mouse) and speed (the swimming rate of the mouse) were recorded on each trial by the monitoring system.
For each mouse, the path length, escape latency, and swimming speed of the four trials on each of the 4 training days were grouped into blocks (one block for each day). […] Specific comparisons were performed, using the simple main effects contrasts analysis, which is specifically suited for testing significant interactions.
Transfer test. During trial No. 17, on the fourth day, the platform was entirely removed from the pool (a probe trial). In this trial, the mouse was placed into the water for a limited period (30 s), and its spatial bias was measured by recording the relative distribution of escape latency and path length over the four quadrants of the pool.
Reversal test. During trials 18-21, on the fifth day, the platform position was changed to the northwest quadrant, opposite to the training quadrant Thus, during reversal learning, the platform location was moved relative to the configuration of objects within the room, but the pool occupied the same place within the room throughout the entire experiment. Testing of the […] and measures taken were the same as in training.
For each mouse, the escape latency, path length and swimming speed of the reversal test (trials No. 18-21) were grouped into one block.

[2] = mouse, in vivo
[3] = tested on: rat pheochromocytoma cells transfected with the M1 mAChR
M1 mAChR = biological target: T1, M1 mAChR (Rattus norvegicus, UniProt P08482); assay: α-APPs secretion in cell cultures stably transfected with M1 mAChR; type: cell-based; conditions: for α-APPs secretion (% of max CCh): maximal response vs 10^−4 M carbachol
T1 construct: expressed in transfected cells
T1 sequence (P08482 1-460): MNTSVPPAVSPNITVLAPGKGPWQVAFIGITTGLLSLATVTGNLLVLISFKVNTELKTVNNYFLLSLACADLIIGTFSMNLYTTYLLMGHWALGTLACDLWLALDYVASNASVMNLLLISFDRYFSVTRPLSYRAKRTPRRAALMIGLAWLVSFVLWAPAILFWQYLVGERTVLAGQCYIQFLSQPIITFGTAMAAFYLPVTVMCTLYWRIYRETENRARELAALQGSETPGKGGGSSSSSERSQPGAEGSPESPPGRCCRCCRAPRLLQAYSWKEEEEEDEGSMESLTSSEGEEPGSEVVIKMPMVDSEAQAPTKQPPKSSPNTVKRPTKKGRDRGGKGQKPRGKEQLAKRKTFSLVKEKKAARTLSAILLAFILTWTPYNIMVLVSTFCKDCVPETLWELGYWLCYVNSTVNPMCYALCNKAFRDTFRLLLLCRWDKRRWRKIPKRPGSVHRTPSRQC
Description: Cells were plated in 6 well culture plates and used at the age of 3-5 days after plating. […] Cells exposed to medium alone are referred as controls.
Cell supernatants were collected into Eppendorff tubes containing a cocktail of protease intubitors (5 units/ml aprotinin, […], 5 mg/ml leupeptin and 10^−4 M Phenylmethylsulfonylfluoride (PMSF, a protease inhibitor); Sigma, USA). The collected media were concentrated with Centricon tubes (Amicon, Beverly, Mass., USA) and kept frozen for α-APPs secretion determination. Equal amounts of protein (50-100 μg) were loaded and separated on 10% sodium dodecyl sulfate-polyacrylamide gel electrophoresis (SDS-PAGE) Followed by western blotting onto nitrocellulose membrane, blocked by fat-free milk, and probed for 24 hours at 4° C., with anti-Alzheimer's precursor protein, A4 monoclonal antibody 22C11 (0.25 μg/ml; Boehringer Mannheim, Germany). The nitrocellulose membranes were washed and incubated for 2 hours at room temperature with peroxidase-linked goat anti-mouse IgG antibodies (Jackson Immunoresearch, USA), followed by extensive washout and staining with enhanced chemiluminescence detection system (Amersham). Quantitative evaluation of the immunoreactive bands, on the exposed films, was performed by video-imaging densitometry (Gel-aid software; Galai Co., Israel). APPs levels were expressed as x-fold increase over basal levels.

[4] = Pharmacokinetic study in rats; type: in vivo, rat; conditions: for bioavailability: rat, plasma, Rats, po, read-out: Bioavailability (% F)
Description: The results of the PK profile of AF292 in rats and Beagle dogs (overnight fasting; drug administered in water solution; gavage) are listed in Table 1.

[5] = tested on: cortical and hippocampal cell culture; assay: Protection against NMDA-induced cell death in primary rat brain cultures; conditions: for neuroprotective potency against 200 μM NMDA, compared with 20 μM MK801: 100 μM agonist; for prevention of NMDA-induced cell death: 20-24 hrs
rat M1 mAChR = rat M1 mAChR (Rattus norvegicus, UniProt P08482); assay: PI turnover, rat M1 mAChR; type: cell-based
[6] = Plasma levels of AF267B and its metabolite AF292 in dogs given AF267B (single dose and 13 weeks); type: in vivo, Beagle dog
Description: Internal Standard (AF261): 2-Methyl-8-methyl-1-thia-4,8-diaza-spiro[4.5]decan-3-one; MW 200. The analytical plasma samples originate from the in-life part of this study.

[7] = normal hippocampus mice, AF150(S) at 1 mg/kg
[8] = small hippocampus mice, both doses
[9] = small hippocampus mice, AF150(S) both doses, AF267B the higher dose
[10] = small hippocampus mice, AF compounds 0.5 and 1 mg/kg i.p., rivastigmine, nicotine 1 mg/kg i.p.
[11] = dogs, after 13 weeks daily AF267B 1.5, 3, 6 mg/kg po
[12] = female dogs, 13 weeks AF267B 1.5, 3, 6 mg/kg p.o.
[13] = female dogs, single dose (1×) of AF267B 1.5, 3, 6 mg/kg p.o.
[14] = male dogs, 13 weeks AF267B 1.5, 3, 6 mg/kg p.o.
[15] = male dogs, single dose (1×) of AF267B 1.5, 3, 6 mg/kg p.o.

Compound	reversal test, swimming speed [1]	training, escape latency ([1]; normal hippocampus mice)	training, swimming speed ([1]; normal hippocampus mice)	training, swimming speed ([1]; small hippocampus mice)	transfer test, spatial bias ([1]; small hippocampus mice)	reversal test, escape latency [1, 8]	training, path length [1, 9]	training, escape latency [1, 10]	Tmax / peak in brain [2] [h]	H2O2-induced toxicity [3]	cell death induced by β-A25-35 (MTT) [3]	α-APPs secretion (% of max CCh) (M1 mAChR) [%]	biovailability in rats [4] [%]	neuroprotective potency against 200 μM NMDA, compared with 20 μM MK801 [5]	prevention of NMDA-induced cell death [5]	PI turnover vs. CCh (as 100%) (rat M1 mAChR)	α-APPs secretion, comparison in words (M1 mAChR)	AUC(0-t) [6, 11] [ng·h/mL]	Cmax [6, 11] [ng/mL]	plasma half life [6, 11] [h]	other results
CC1=NCC2(CCN(C)CC2)S1 [AF150(S), 2,8-Dimethyl-1-thia-3,8-diaza-spiro[4.5]dec-2-ene]	significantly decreased	increased the escape latencies	impaired the swimming speed	enhancing effect of AF150(S) was equal in both doses	complete spatial bias	improved the escape latency	positively affected the performance	positively affected the training performance	0.017 to 0.167	protect the cells	significantly attenuated	50	31	slightly less	effective in prevention of cell death						reversal test, escape latency ([1]; normal hippocampus mice, AF150(S) at 0.5 mg/kg): impaired the escape latency; reversal test, path length [1, 7]: impairment of reversal learning; transfer test, spatial bias [1, 7]: only a partial spatial bias; training, path length ([1]; normal hippocampus mice, AF150(S) only the higher dose): impaired the path length; brain penetration time ([2]; iv): 1 min
CC[C@@H]1SC2(CCN(C)CC2)NC1=O [AF267B, (S)-2-ethyl-8-methyl-1-thia-4,8-diaza-spiro[4.5]decan-3-one]	significantly decreased	did not significantly affect the escape latencies	had no such effect	enhanced the swimming speed in a dose dependent manner	complete spatial bias	improved the escape latency	positively affected the performance	positively affected the training performance	0.333 to 0.5	protect the cells	significantly attenuated			slightly less	effective in prevention of cell death	PI, rat M1 mAChR: 75%	more efficacious and more potent than its racemate	712 to 3947	162 to 1352	1 to 2	time after dosing detected in the brain [2]: 2 to 240 min; α-APPs secretion, fold increase over control (M1 mAChR; 10^−4 M, 1 hour): about 6 fold; Tmax [6, 11]: 1.5 to 3 h; MRT (area) ([6]; female dogs, 13 weeks): 3.6 to 5.2 h; AUC(0-inf) [6, 12]: 1033 to 4164 ng·h/mL; MRT (area) ([6]; female dogs, single dose (1×)): 4.7 to 5.3 h; AUC(0-inf) [6, 13]: 985 to 3179 ng·h/mL; MRT (area) ([6]; male dogs, 13 weeks): 3.0 to 4.2 h; AUC(0-inf) [6, 14]: 1041 to 4471 ng·h/mL; MRT (area) ([6]; male dogs, single dose (1×)): 3.8 to 5 h; AUC(0-inf) [6, 15]: 800 to 3691 ng·h/mL; bioavailability ([4]; calculated for 2 mg/kg): 30%
CC[C@@H]1SC2(CCNCC2)NC1=O [AF292, (S)-2-Ethyl-1-thia-4,8-diaza-spiro[4.5]decan-3-one]										protect the cells	significantly attenuated	100	49			PI, rat M1 mAChR; 50%	Equipotent with AF267B	616 to 2451	136 to 555	9 to 20	MTT assay against Aβ 25-35 & H2O2 in cell cultures transfected with rat M1 mAChR [3]: Equipotent with AF267B & CCh at 100; Cmax vs. the Cmax of AF267B ([6]; dogs): 50-90%; T1/2 in plasma, times longer than AF267B ([6]; dogs): 3-5 times; MRT (area) ([6]; female dogs, 13 weeks): 5.1 to 33.7 h; AUC(0-inf) [6, 12]: F(13 w): 1866-12723; M(13 w): ng * h/ml; MRT (area) ([6]; female dogs, single dose (1×)): 8.7 to 18.7 h; AUC(0-inf) [6, 13]: F (1×): outlier, 3901-4840; M (1×): ng * h/ml; Elimination half life, Mean T½ (M) ([6]; male dogs): Mean T½ (M) = 6.34 +/− 5.9; h; MRT (area) ([6]; male dogs, 13 weeks): 5 to 7.8 h; AUC(0-inf) [6, 14]: 1609 to 4170 ng·h/mL; MRT (area) ([6]; male dogs, single dose (1×)): 5 to 27.3 h; AUC(0-inf) [6, 15]: 1142 to 10932 ng·h/mL; bioavailability ([4]; 10 mg/kg, p.o.): 49%
